Results published in PMC11078216, “Discovery of potent and selective activity-based probes (ABPs) for the deubiquitinating enzyme USP30” (RSC Chemical Biology, 2024).

How the values were obtained:
Test in all cases: ABPP chemical proteomics (LC-MS/MS) in HEK293T cells
Format in all cases: cell-based
ALYREF = molecular target: T1, ALYREF (Homo sapiens, UniProt Q86V81); details: IMP-2586 labelling vs DMSO, 30 nM, 10 min, HEK293T (Table S4, Fig.5c)
T1 construct: endogenous in cells; host or cells: HEK293T
Procedure: (§1) To explore the selectivity of IMP-2587 and IMP-2586 across the whole proteome, we performed quantitative activity-based protein profiling (ABPP) in HEK293T cells following treatment with IMP-2587 or IMP-2586 (Fig. 3a). After ABP incubation, cells were lysed, and probe-labelled proteins were ligated to biotinylated capture reagents.[27] […] USP30 was outcompeted by corresponding parent inhibitors for each ABP (Fig. 5b and d and Tables S3 and S5, ESI ^†), confirming the high potency and rapid engagement of IMP-2587 and IMP-2586 in cells. […] DESI1 and DESI2 are small ubiquitin-related modifier (SUMO) proteases,[3,29–32] and IMP-2587 and IMP-2586 may offer a starting point for future development of DESI ABPs. […]
(§2) d) Live cell probe incubation, lysate click chemistry and precipitation 6-well HEK293T cells were incubated with media containing compounds ABP 2 and ABP 4 at indicated concentrations for 1 h at 37 °C. The cells were washed with PBS and lysed with lysis buffer (50 μL (1% (v/v) Triton X-100, 0.1% (w/v) sodium dodecyl sulfate (SDS), EDTA-free complete protease inhibitor cocktail (1×, Roche) in PBS on ice for 10 min. The lysates were scraped and transferred to corresponding Lo-Bind Eppendorfs. Each lysate was sonicated for 1 minute, and the samples centrifuges at 5,000 x g at 4 °C for 5 minutes to pellet insoluble cellular debris. The supernatant was collected, and protein concentration was determined using the DC Protein Assay (Bio-Rad) as per manufacturer’s instructions, and normalised to lowest concentrated sample (e.g. 1 mg/mL, using lysis buffer). The following “click mixture” was prepared separately, preparing 6 μL for every 100 μL of […]
(§3) Capture reagent (AzRB/AzT for ABP 2, YnT/YnB for ABP 4 10 mM in DMSO, 1 vol; final concentration […]
(§4) CuSO4 (50 mM in water, 2 vol; final concentration in reaction 1 mM)
(§5) TCEP (50 mM in water, 2 vol; final concentration in reaction 1 mM)
(§6) TBTA (10 mM in DMSO, 1 vol; final concentration in reaction 100 µM)
(§7) The click mixture was vortexed and incubated at room temperature for 2 min before 6 μL of the mixture was added to every 100 μL of lysate. The reaction mixtures were shaken at room temperature for 1 h before being quenched with EDTA (500 mM in H2O) to a final concentration of 10 mM.
(§8) Proteins were precipitated by adding H2O (1 vol), MeOH (2 vol) and CHCl3 (0.5 vol), vortexing briefly then centrifuging at 17,000 × g for 5 min. The top H2O/MeOH layer was discarded and the middle layer of protein pellet and lower CHCl3 layer retained. The suspension was washed with MeOH (300 μL), and sonicated to break up the pellet. The proteins were pelleted by centrifugation at 10,000–17000 × g for 5–10 min or until a compact pellet was formed. The protein pellet was washed once more with MeOH (1 mL). The pellet was resuspended by sonicating and completely dissolving in 1% (w/v) SDS in PBS (to 5 mg/mL protein) before being made up to 1 mg/mL protein with PBS.
(§9) The lysate samples (10-20 μg) were mixed with 4× Laemmli sample loading buffer (250 mM Tris -HCl pH 6.8, 30% (v/v) glycerol, 10% (w/v) SDS, 0.05% (w/v) bromophenol blue) supplemented with 20% v/v β-mercaptoethanol (BME) and boiled for 10 min at 95 °C. The resulting protein samples were separated according to the protocol in section 3.2.c. Gel were imaged on a Typhoon imager (GE Healthcare; λEx 532 nm, λEm 575 nm for TAMRA. For protein loading quantification, gels were stained with Coomassie blue staining solution overnight, rinsed with water and imaged on an ImageQuant™ LAS 4000 imager (GE Healthcare). f) Neutravidin biotin enrichment (Affinity pull-down)
(§10) Click chemistry and precipitation steps were carried out as described in section 3.2.d, on at least 400ug of protein per sample. The pellet was resuspended by sonicating and completely dissolving in 1% (w/v) SDS in HEPES 50 mM pH 8.0, before being made up to 1 mg/mL protein with HEPES 50 mM pH 8.0 to […]
(§11) achieve a final concentration of 0.2% SDS. 20uL of each samples was collected as TL (Total lysate) […]
(§12) samples. […]

RER1 = molecular target: T2, RER1 (Homo sapiens, UniProt O15258); details: IMP-2586 labelling vs DMSO, 30 nM, 10 min, HEK293T (Table S4, Fig.5c)
T2 construct: endogenous in cells; host or cells: HEK293T
Procedure: as §1, §2, §3, §4, §5, §6, §7, §8, §9, §10, §11, §12

CFAP20 = molecular target: T3, CFAP20 (Homo sapiens, UniProt Q9Y6A4); details: IMP-2586 labelling vs DMSO, 30 nM, 10 min, HEK293T (Table S4, Fig.5c)
T3 construct: endogenous in cells; host or cells: HEK293T
Procedure: as §1, §2, §3, §4, §5, §6, §7, §8, §9, §10, §11, §12

SFT2D3 = molecular target: T4, SFT2D3 (Homo sapiens, UniProt Q587I9); details: IMP-2586 labelling vs DMSO, 30 nM, 10 min, HEK293T (Table S4, Fig.5c)
T4 construct: endogenous in cells; host or cells: HEK293T
Procedure: as §1, §2, §3, §4, §5, §6, §7, §8, §9, §10, §11, §12

TMEM263 = molecular target: T5, TMEM263 (Homo sapiens, UniProt Q8WUH6); details: IMP-2586 labelling vs DMSO, 30 nM, 10 min, HEK293T (Table S4, Fig.5c)
T5 construct: endogenous in cells; host or cells: HEK293T
Procedure: as §1, §2, §3, §4, §5, §6, §7, §8, §9, §10, §11, §12

SMARCA4 = molecular target: T6, SMARCA4 (Homo sapiens, UniProt P51532); details: IMP-2586 labelling vs DMSO, 30 nM, 10 min, HEK293T (Table S4, Fig.5c)
T6 construct: endogenous in cells; host or cells: HEK293T
Procedure: as §1, §2, §3, §4, §5, §6, §7, §8, §9, §10, §11, §12

MALT1 = molecular target: T7, MALT1 (Homo sapiens, UniProt Q9UDY8); details: IMP-2586 labelling vs DMSO, 30 nM, 10 min, HEK293T (Table S4, Fig.5c)
T7 construct: endogenous in cells; host or cells: HEK293T
Procedure: as §1, §2, §3, §4, §5, §6, §7, §8, §9, §10, §11, §12

NIT2 = molecular target: T8, NIT2 (Homo sapiens, UniProt Q9NQR4); details: IMP-2587 labelling vs DMSO, 30 nM, 10 min, HEK293T (Table S2, Fig.5a)
T8 construct: endogenous in cells; host or cells: HEK293T
Procedure: as §1, §2, §3, §4, §5, §6, §7, §8, §9, §10, §11, §12

NPM3 = molecular target: T9, NPM3 (Homo sapiens, UniProt O75607); details: IMP-2587 labelling vs DMSO, 30 nM, 10 min, HEK293T (Table S2, Fig.5a)
T9 construct: endogenous in cells; host or cells: HEK293T
Procedure: as §1, §2, §3, §4, §5, §6, §7, §8, §9, §10, §11, §12

UCHL1 = molecular target: T10, UCHL1 (Homo sapiens, UniProt P09936); design: endogenous in cells; host or cells: HEK293T; details: IMP-2587 labelling vs DMSO, 30 nM, 10 min, HEK293T (Table S2, Fig.5a)
T10 sequence (P09936 1-223): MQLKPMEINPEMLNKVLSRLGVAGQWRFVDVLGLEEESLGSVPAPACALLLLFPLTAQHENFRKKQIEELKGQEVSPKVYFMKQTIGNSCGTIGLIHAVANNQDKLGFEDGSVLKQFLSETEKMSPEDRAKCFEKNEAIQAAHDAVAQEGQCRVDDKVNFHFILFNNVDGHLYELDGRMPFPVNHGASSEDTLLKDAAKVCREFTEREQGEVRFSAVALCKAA
Procedure: as §1
The lysate samples (10-20 μg) were mixed with 4× Laemmli sample loading buffer (250 mM Tris -HCl pH 6.8, 30% (v/v) glycerol, 10% (w/v) SDS, 0.05% (w/v) bromophenol blue) supplemented with 20% v/v β-mercaptoethanol (BME) and boiled for 10 min at 95 °C. […] Gel were imaged on a Typhoon imager (GE Healthcare; λEx 532 nm, λEm 575 nm for TAMRA. For protein loading quantification, gels were stained with Coomassie blue staining solution overnight, rinsed with water and imaged on an ImageQuant™ LAS 4000 imager (GE Healthcare). f) Neutravidin biotin enrichment (Affinity pull-down) […]

RPL10 = molecular target: T11, RPL10 (Homo sapiens, UniProt P27635); details: compound 1 out-competition with IMP-2587 labelling, HEK293T (Table S3, Fig.5b)
T11 construct: endogenous in cells; host or cells: HEK293T
Procedure: as §1, §2, §3, §4, §5, §6, §7, §8, §9, §10, §11, §12

NUB1 = molecular target: T12, NUB1 (Homo sapiens, UniProt Q9Y5A7); details: compound 3 out-competition with IMP-2586 labelling, HEK293T (Table S5, Fig.5d)
T12 construct: endogenous in cells; host or cells: HEK293T
Procedure: as §1, §2, §3, §4, §5, §6, §7, §8, §9, §10, §11, §12

T4 sequence (Q587I9 whole entry): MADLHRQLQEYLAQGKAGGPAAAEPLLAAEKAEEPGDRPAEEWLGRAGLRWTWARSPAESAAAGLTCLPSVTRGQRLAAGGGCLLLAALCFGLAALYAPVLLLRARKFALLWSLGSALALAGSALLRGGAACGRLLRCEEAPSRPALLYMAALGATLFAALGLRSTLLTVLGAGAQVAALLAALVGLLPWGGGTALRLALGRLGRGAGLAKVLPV
T8 sequence (Q9NQR4 whole entry): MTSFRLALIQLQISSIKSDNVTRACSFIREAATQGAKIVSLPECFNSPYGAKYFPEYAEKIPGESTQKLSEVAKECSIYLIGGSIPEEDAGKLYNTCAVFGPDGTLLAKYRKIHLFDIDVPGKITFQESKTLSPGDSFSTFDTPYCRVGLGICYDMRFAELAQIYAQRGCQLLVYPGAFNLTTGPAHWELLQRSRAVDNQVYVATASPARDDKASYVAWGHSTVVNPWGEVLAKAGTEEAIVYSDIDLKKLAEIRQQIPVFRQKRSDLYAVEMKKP
T7 sequence (Q9UDY8 whole entry): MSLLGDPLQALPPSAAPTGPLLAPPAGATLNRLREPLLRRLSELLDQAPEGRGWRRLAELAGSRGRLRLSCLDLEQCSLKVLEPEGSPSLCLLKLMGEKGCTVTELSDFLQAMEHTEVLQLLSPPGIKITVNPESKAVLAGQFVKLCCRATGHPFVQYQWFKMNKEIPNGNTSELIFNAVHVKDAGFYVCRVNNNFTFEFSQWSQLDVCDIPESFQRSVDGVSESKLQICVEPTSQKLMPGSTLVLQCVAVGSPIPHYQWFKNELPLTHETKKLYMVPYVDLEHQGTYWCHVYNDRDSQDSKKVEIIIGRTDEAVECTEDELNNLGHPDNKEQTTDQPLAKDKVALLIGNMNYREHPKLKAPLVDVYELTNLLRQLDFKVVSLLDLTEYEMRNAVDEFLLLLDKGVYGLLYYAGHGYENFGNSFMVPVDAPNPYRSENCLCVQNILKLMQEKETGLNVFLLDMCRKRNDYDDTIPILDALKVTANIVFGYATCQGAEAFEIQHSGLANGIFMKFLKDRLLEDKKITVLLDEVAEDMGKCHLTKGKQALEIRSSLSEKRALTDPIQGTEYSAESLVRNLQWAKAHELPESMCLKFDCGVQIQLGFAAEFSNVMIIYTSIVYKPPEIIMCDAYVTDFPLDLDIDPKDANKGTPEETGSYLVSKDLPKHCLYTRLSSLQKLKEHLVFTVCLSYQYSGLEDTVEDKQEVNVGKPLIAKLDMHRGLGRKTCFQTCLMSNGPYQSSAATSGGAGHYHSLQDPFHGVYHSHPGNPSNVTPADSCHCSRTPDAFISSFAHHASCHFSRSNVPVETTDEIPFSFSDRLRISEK
T9 sequence (O75607 whole entry): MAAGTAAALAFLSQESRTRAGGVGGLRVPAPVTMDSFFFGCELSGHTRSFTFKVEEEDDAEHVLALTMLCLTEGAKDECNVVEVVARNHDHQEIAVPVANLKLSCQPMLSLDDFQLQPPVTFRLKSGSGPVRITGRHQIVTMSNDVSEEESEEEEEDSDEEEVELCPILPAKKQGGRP
T12 sequence (Q9Y5A7 whole entry): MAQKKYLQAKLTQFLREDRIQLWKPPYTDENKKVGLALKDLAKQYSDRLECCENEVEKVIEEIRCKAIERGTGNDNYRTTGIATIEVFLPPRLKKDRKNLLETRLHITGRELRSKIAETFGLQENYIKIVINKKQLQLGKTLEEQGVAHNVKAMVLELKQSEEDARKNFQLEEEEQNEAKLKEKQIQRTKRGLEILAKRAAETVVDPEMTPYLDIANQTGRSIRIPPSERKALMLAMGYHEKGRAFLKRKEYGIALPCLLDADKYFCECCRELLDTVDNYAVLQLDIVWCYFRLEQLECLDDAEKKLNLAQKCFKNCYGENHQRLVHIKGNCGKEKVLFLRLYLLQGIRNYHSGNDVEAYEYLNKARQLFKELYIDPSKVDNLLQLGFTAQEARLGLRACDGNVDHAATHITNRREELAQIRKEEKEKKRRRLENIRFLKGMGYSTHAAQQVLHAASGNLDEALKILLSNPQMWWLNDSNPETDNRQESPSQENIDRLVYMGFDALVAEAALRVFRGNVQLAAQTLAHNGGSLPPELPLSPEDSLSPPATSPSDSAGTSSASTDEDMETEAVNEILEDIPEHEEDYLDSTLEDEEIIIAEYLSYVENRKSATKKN
T2 sequence (O15258 whole entry): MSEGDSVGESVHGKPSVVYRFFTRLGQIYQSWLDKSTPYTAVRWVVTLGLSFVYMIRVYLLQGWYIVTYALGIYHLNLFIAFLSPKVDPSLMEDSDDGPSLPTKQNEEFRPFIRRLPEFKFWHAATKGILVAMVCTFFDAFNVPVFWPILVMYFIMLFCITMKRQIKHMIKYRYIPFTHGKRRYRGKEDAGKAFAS
T6 sequence (P51532 whole entry): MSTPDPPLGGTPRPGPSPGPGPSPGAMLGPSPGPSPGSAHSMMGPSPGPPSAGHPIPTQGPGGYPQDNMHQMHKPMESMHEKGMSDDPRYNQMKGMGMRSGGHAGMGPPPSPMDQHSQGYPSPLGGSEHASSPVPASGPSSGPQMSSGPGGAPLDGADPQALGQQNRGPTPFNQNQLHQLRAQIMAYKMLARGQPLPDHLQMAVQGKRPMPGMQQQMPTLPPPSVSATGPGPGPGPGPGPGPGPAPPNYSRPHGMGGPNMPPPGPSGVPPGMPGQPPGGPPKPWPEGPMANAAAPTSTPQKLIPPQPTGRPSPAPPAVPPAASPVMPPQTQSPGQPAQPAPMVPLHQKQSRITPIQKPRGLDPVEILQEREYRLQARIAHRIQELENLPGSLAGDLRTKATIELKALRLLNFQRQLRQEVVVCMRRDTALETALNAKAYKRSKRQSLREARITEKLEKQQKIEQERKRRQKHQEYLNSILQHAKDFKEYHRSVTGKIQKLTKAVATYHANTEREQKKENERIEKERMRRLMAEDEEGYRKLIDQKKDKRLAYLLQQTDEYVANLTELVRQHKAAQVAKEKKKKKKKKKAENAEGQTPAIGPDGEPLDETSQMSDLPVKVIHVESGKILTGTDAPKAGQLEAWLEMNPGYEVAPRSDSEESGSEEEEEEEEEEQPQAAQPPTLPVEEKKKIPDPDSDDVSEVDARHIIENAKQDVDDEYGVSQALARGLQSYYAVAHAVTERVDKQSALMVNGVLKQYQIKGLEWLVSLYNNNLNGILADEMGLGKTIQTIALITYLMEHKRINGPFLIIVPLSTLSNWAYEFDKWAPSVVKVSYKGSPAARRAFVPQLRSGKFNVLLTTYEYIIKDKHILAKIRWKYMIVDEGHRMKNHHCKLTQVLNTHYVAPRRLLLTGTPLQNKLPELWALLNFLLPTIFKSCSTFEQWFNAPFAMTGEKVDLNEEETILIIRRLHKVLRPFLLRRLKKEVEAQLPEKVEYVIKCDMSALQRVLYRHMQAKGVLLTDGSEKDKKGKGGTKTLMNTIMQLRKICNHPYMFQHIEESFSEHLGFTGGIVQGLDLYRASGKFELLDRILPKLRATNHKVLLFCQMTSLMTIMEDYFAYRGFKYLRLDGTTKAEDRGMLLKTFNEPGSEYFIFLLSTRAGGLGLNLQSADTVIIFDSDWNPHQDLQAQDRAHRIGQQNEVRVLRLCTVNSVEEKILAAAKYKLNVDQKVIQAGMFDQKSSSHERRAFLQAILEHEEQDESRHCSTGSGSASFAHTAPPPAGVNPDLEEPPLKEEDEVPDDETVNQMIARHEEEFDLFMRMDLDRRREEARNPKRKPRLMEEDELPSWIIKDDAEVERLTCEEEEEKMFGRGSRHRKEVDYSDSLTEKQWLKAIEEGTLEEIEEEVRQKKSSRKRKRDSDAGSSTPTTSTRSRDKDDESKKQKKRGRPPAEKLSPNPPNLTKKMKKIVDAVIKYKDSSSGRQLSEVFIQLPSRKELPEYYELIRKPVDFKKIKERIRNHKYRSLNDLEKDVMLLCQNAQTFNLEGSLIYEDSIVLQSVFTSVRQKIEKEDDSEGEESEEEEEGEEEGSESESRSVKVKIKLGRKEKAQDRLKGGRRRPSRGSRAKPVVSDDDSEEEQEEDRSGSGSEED
T3 sequence (Q9Y6A4 whole entry): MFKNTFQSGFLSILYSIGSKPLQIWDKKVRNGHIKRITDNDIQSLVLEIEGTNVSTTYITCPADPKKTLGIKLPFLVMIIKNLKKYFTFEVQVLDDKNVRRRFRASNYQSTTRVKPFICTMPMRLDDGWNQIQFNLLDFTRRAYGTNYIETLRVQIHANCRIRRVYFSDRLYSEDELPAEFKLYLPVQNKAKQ

## N#CN1CC[C@@H](NC(=O)c2cc(-c3ccccc3Oc3ccc(N=[N+]=[N-])cc3)n[nH]2)C1 [IMP-2586]
ALYREF
  Difference (log2 fold change of enrichment): -0.42
RER1
  Difference (log2 fold change of enrichment): -1.34
CFAP20
  Difference (log2 fold change of enrichment): -0.41
SFT2D3
  Difference (log2 fold change of enrichment): -1.51
TMEM263
  Difference (log2 fold change of enrichment): -0.44
SMARCA4
  Difference (log2 fold change of enrichment): 0.52
MALT1
  Difference (log2 fold change of enrichment): 0.75

## C#Cc1cccc(-c2cc(NC(=O)CC3CCN(C#N)C3)on2)c1 (stereo not drawn) [IMP-2587]
NIT2
  Difference (log2 fold change of enrichment): 0.61
NPM3
  Difference (log2 fold change of enrichment): 0.89
UCHL1
  Difference (log2 fold change of enrichment): 0.76

## N#CN1CC[C@H](CC(=O)Nc2cc(-c3cccc(Cl)c3)no2)C1 [compound 1, reference compound]
RPL10
  Difference (log2 fold change of enrichment): -0.52

## N#CN1CC[C@@H](NC(=O)c2cc(-c3ccccc3Oc3ccccc3)n[nH]2)C1 [compound 3, reference compound]
NUB1
  Difference (log2 fold change of enrichment): -0.38
